Like-named read-outs stand apart in the source and are kept apart here.
Experiments:
[1] = test system: SK-OV-3 ovarian cancer cell line; assay: Cell growth inhibition, WST-8 assay, SK-OV-3; format: cell-based; conditions: 4 days, WST-8, read-out: SK-OV-3 IC50
Description: (§1) The effect of the compounds of the present invention on the growth of various cancer cell lines was tested. Cells were seeded in 96-well flat bottom cell culture plates at a density of 3000 cells/well with a tested compound and incubated at 37° C. in an atmosphere of 95% air and 5% CO2 for 4 days. […] Dojindo Molecular Technologies, Inc., Gaithersburg, Md.). […] The absorbance of the samples was measured at 450 nm using a ULTRA Tecan Reader (Molecular Device). […] The ability of SM-406 to inhibit cell growth as a single agent was tested in the MDA-MB-231 breast cancer cell line, SK-OV-3 and OVCAR-4 ovarian cancer cell lines and SK-MeI-2 melanoma cancer cell line. Cells were treated for 4 days. Cell growth was determined using a WST-based assay.

[2] = test system: MDA-MB-231 human breast cancer cell line; assay: Cell growth inhibition, WST-8 assay, MDA-MB-231; format: cell-based
Description: as §1

XIAP BIR3 = XIAP BIR3 (Homo sapiens, UniProt P98170); assay: Fluorescence polarization (FP) based competitive binding assay to XIAP BIR3; design: human XIAP (residues 241-356) fused to His-tag; His-tag; conditions: FP binding, XIAP BIR3 30 nM, SM5F 5 nM
Sequence of XIAP BIR3 (P98170 241-356): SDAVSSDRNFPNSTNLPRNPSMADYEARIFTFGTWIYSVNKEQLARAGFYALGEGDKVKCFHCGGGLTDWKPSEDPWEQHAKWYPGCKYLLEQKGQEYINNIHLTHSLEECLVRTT

[3] = Homo sapiens, MDA-MB-231, 96 h, 4 days, WST-8, read-out: MDA-MB-231 IC50

Structure (SMILES) | IC50 ([1]; listed as SH-207) | IC50 [1] | IC50 ([2]; 4 days, WST-8, listed as SH-207, read-out: MDA-MB-231 IC50) | IC50 ([2]; 4 days, WST-8, read-out: MDA-MB-231 IC50) | IC50 (XIAP BIR3) | IC50 ([1]; Homo sapiens, SK-OV-3, 96 h) | IC50 [2, 3] | IC50 ([2]; Homo sapiens, MDA-MB-231, 96 h, read-out: MDA-MB-231 IC50 (μM))
CN[C@@H](C)C(=O)N[C@H]1CN(C(=O)Cc2ccccc2)CCC[C@H]2CC[C@@H](C(=O)NC(c3ccccc3)c3ccccc3)N2C1=O [SM-207] | < 1000 nM | < 10000 nM | < 1 µM | < 10 µM | < 1000 nM |  |  | 
CN[C@@H](C)C(=O)N[C@H]1CN(C(=O)C(C)C)CC[C@H]2CC[C@@H](C(=O)NC(c3ccc(F)cc3)c3ccc(F)cc3)N2C1=O [SM-209] |  |  |  |  | < 1000 nM | < 10000 nM | < 10 µM | 
CN[C@@H](C)C(=O)N[C@H]1CN(C(=O)CC(C)C)CC[C@H]2CC[C@@H](C(=O)NC(c3ccc(F)cc3)c3ccc(F)cc3)N2C1=O [SM-210] |  |  |  |  | < 1000 nM | < 1000 nM | < 1 µM | 
CCCN[C@@H](C)C(=O)N[C@H]1CN(C(=O)CC(C)C)CC[C@H]2CC[C@@H](C(=O)NC(c3ccccc3)c3ccccc3)N2C1=O [SM-211] |  |  |  |  | < 1000 nM | < 10000 nM | < 10 µM | 
CC[C@H](NC)C(=O)N[C@H]1CN(C(=O)CC(C)C)CC[C@H]2CC[C@@H](C(=O)NC(c3ccccc3)c3ccccc3)N2C1=O [SM-212] |  |  |  |  | < 1000 nM | < 10000 nM | < 10 µM | 
CC(C)CC(=O)N1CC[C@H]2CC[C@@H](C(=O)NC(c3ccccc3)c3ccccc3)N2C(=O)[C@@H](NC(=O)[C@H](C)NCCO)C1 [SM-213] |  |  |  |  | < 1000 nM | < 10000 nM | < 10 µM | 
CN[C@@H](C)C(=O)N[C@H]1CNCC[C@H]2CC[C@@H](C(=O)NC(c3ccccc3)c3ccccc3)N2C1=O [SM-227] |  |  |  |  |  | < 10000 nM | < 10 µM | 
CN[C@@H](C)C(=O)N[C@H]1CN(C(=O)CC(C)C)CC[C@H]2CC[C@@H](CN(Cc3ccccc3)C(C)=O)N2C1=O [SM-230] |  |  |  |  | < 10000 nM | < 100000 nM | < 100 µM | 
CN[C@@H](C)C(=O)N[C@H]1CN(C(C)=O)CC[C@H]2CCC(C(=O)NC(c3ccccc3)c3ccccc3)N2C1=O (stereo partly shown) [SM-330] |  |  |  |  |  |  |  | < 1 µM
CN[C@@H](C)C(=O)N[C@H]1CN(C(=O)Cc2ccc(F)cc2)CC[C@H]2CCC(C(=O)NC(c3ccccc3)c3ccccc3)N2C1=O (stereo partly shown) [SM-350] |  |  |  |  | < 1000 nM | < 1000 nM | < 1 µM | 
CN[C@@H](C)C(=O)N[C@H]1CN(C(=O)Cc2ccc(F)cc2F)CC[C@H]2CCC(C(=O)NC(c3ccccc3)c3ccccc3)N2C1=O (stereo partly shown) [SM-356] |  |  |  |  | < 1000 nM |  | < 1 µM | 
CN[C@@H](C)C(=O)N[C@H]1CN(C(=O)Cc2ccccc2)CC[C@H]2CC[C@@H](C(=O)NC3CCCc4ccccc43)N2C1=O (stereo partly shown) [SM-376] |  |  |  |  | < 100 nM | < 1000 nM | < 1 µM | 
CN[C@@H](C)C(=O)N[C@H]1CN(C(=O)Cc2ccc(F)cc2)CC[C@H]2CC[C@@H](C(=O)NC3CCCc4ccccc43)N2C1=O (stereo partly shown) [SM-377] |  |  |  |  | < 100 nM | < 1000 nM | < 1 µM | 
CN[C@@H](C)C(=O)N[C@H]1CN(C(=O)Cc2ccccc2)CC[C@H]2CC[C@@H](C(=O)NCc3ccc(F)cc3)N2C1=O [SM-401] |  |  |  |  | < 1000 nM | < 1000 nM | < 1 µM | 
CN[C@@H](C)C(=O)N[C@H]1CN(C(=O)Cc2ccc(F)cc2)CC[C@H]2CC[C@@H](C(=O)NCc3ccc(F)cc3)N2C1=O [SM-402] |  |  |  |  | < 1000 nM | < 1000 nM | < 1 µM | 
CN[C@@H](C)C(=O)N[C@H]1CN(C(=O)Cc2ccccc2)CC[C@H]2CC[C@@H](C(=O)NC(c3ccc(F)cc3)c3ccc(F)cc3)N2C1=O [SM-403] |  |  |  |  | < 1000 nM | < 1000 nM | < 1 µM | 
CN[C@@H](C)C(=O)N[C@H]1CN(C(=O)CCc2ccc(F)cc2)CC[C@H]2CC[C@@H](C(=O)NC(c3ccc(F)cc3)c3ccc(F)cc3)N2C1=O [SM-404] |  |  |  |  | < 1000 nM | < 1000 nM | < 1 µM | 
CN[C@@H](C)C(=O)N[C@H]1CN(C(=O)CC2CCCC2)CC[C@H]2CC[C@@H](C(=O)NC(c3ccccc3)c3ccccc3)N2C1=O [SM-405] |  |  |  |  | < 1000 nM | < 1000 nM | < 1 µM | 
CN[C@@H](C)C(=O)N[C@H]1CN(C(=O)CCc2ccc(F)cc2)CC[C@H]2CC[C@@H](C(=O)NC(c3ccccc3)c3ccccc3)N2C1=O [SM-407] |  |  |  |  | < 1000 nM | < 1000 nM | < 1 µM | 
CN[C@@H](C)C(=O)N[C@H]1CN(C(=O)CCc2ccccc2)CC[C@H]2CC[C@@H](C(=O)NC(c3ccccc3)c3ccccc3)N2C1=O [SM-408] |  |  |  |  | < 1000 nM | < 1000 nM | < 1 µM | 
CCCC(=O)N1CC[C@H]2CC[C@@H](C(=O)NC(c3ccccc3)c3ccccc3)N2C(=O)[C@@H](NC(=O)[C@H](C)NC)C1 [SM-409] |  |  |  |  | < 1000 nM | < 1000 nM | < 1 µM | 

Structure (SMILES) | IC50 ([1]; listed as SH-207) | IC50 [1] | IC50 ([2]; 4 days, WST-8, listed as SH-207, read-out: MDA-MB-231 IC50) | IC50 ([2]; 4 days, WST-8, read-out: MDA-MB-231 IC50) | IC50 (XIAP BIR3) | IC50 ([1]; Homo sapiens, SK-OV-3, 96 h) | IC50 [2, 3] | IC50 ([2]; Homo sapiens, MDA-MB-231, 96 h, read-out: MDA-MB-231 IC50 (μM))
CN[C@@H](C)C(=O)N[C@H]1CN(C(=O)CN2CCNC(=O)C2)CC[C@H]2CC[C@@H](C(=O)NC(c3ccccc3)c3ccccc3)N2C1=O [SM-412] |  |  |  |  | < 10000 nM | > 1000 nM | > 1 µM | 
CN[C@@H](C)C(=O)N[C@H]1CN(C(=O)C[C@@H](O)C(=O)O)CC[C@H]2CC[C@@H](C(=O)NC(c3ccccc3)c3ccccc3)N2C1=O [SM-413] |  |  |  |  | < 1000 nM | < 100000 nM | < 100 µM | 
CN[C@@H](C)C(=O)N[C@H]1CN(C(=O)CCn2ccnc2)CC[C@H]2CC[C@@H](C(=O)NC(c3ccccc3)c3ccccc3)N2C1=O [SM-414] |  |  |  |  | < 1000 nM | < 100000 nM | < 100 µM | 
CN[C@@H](C)C(=O)N[C@H]1CN(C(=O)CC(C)(C)C)CC[C@H]2CC[C@@H](C(=O)NC(c3ccccc3)c3ccccc3)N2C1=O [SM-415] |  |  |  |  | < 1000 nM | < 1000 nM | < 1 µM | 
CN[C@@H](C)C(=O)N[C@H]1CN(C(=O)C[C@H]2CC[C@H](O)C2)CC[C@H]2CC[C@@H](C(=O)NC(c3ccccc3)c3ccccc3)N2C1=O [SM-416] |  |  |  |  | < 1000 nM | < 10000 nM | < 10 µM | 
CN[C@@H](C)C(=O)N[C@H]1CN(C(=O)[C@H]2CC[C@H](O)C2)CC[C@H]2CC[C@@H](C(=O)NC(c3ccccc3)c3ccccc3)N2C1=O [SM-418] |  |  |  |  | < 1000 nM | < 10000 nM | < 10 µM | 
CN[C@@H](C)C(=O)N[C@H]1CN(C(=O)C[C@@H]2CCOC2)CC[C@H]2CC[C@@H](C(=O)NC(c3ccccc3)c3ccccc3)N2C1=O [SM-419] |  |  |  |  | < 1000 nM | < 10000 nM | < 10 µM | 
CN[C@@H](C)C(=O)N[C@H]1CN(C(=O)CCC(C)C)CC[C@H]2CC[C@@H](C(=O)NC(c3ccccc3)c3ccccc3)N2C1=O [SM-420] |  |  |  |  | < 1000 nM | < 1000 nM | < 1 µM | 
CN[C@@H](C)C(=O)N[C@H]1CN(C(=O)CCCc2ccccc2)CC[C@H]2CC[C@@H](C(=O)NC(c3ccccc3)c3ccccc3)N2C1=O [SM-421] |  |  |  |  | < 1000 nM | < 1000 nM | < 1 µM | 
CN[C@@H](C)C(=O)N[C@H]1CN(C(=O)CCCC(C)C)CC[C@H]2CC[C@@H](C(=O)NC(c3ccccc3)c3ccccc3)N2C1=O [SM-422] |  |  |  |  | < 1000 nM | < 1000 nM | < 1 µM | 
CN[C@@H](C)C(=O)N[C@H]1CN(C(=O)CC(C)C)CC[C@H]2CC[C@@H](C(=O)NC3CCCCC3)N2C1=O [SM-423] |  |  |  |  | < 10000 nM | < 100000 nM | < 100 µM | 
CN[C@@H](C)C(=O)N[C@H]1CN(C(=O)CC(C)C)CC[C@H]2CC[C@@H](C(=O)N[C@H]3CCc4ccccc43)N2C1=O [SM-425] |  |  |  |  | < 1000 nM | < 10000 nM | < 10 µM | 
CN[C@@H](C)C(=O)N[C@H]1CN(C(=O)CC(C)C)CC[C@H]2CC[C@@H](C(=O)NCc3ccc(C(F)(F)F)cc3)N2C1=O [SM-426] |  |  |  |  | < 10000 nM | < 10000 nM | < 10 µM | 
CN[C@@H](C)C(=O)N[C@H]1CN(C(=O)CC(C)C)CC[C@H]2CC[C@@H](C(=O)N[C@@H]3CCCc4ccccc43)N2C1=O [SM-427] |  |  |  |  | < 1000 nM | < 1000 nM | < 1 µM | 
CN[C@@H](C)C(=O)N[C@H]1CN(C(=O)CC(C)C)CC[C@H]2CC[C@@H](C(=O)NCc3cccc(-c4ccccc4)c3)N2C1=O [SM-429] |  |  |  |  | < 1000 nM | < 10000 nM | < 10 µM | 
CN[C@@H](C)C(=O)N[C@H]1CN(C(=O)CC(C)C)CC[C@H]2CC[C@@H](C(=O)NCc3cccc4ccccc34)N2C1=O [SM-430] |  |  |  |  | < 1000 nM | < 10000 nM | < 10 µM | 
CN[C@@H](C)C(=O)N[C@H]1CN(C(=O)CC(C)C)CC[C@H]2CC[C@@H](C(=O)NC3CCc4ccccc43)N2C1=O (stereo partly shown) [SM-431] |  |  |  |  | < 1000 nM | < 1000 nM | < 1 µM | 
CN[C@@H](C)C(=O)N[C@H]1CN(C(=O)CC(C)C)CC[C@H]2CC[C@@H](C(=O)NCC(c3ccccc3)c3ccccc3)N2C1=O [SM-432] |  |  |  |  | < 1000 nM | < 10000 nM | < 10 µM | 
CN[C@@H](C)C(=O)N[C@H]1CN(C(=O)CC(C)C)CC[C@H]2CC[C@@H](C(=O)NCc3ccccc3-c3ccccc3)N2C1=O [SM-433] |  |  |  |  | < 1000 nM | < 10000 nM | < 10 µM | 
CN[C@@H](C)C(=O)N[C@H]1CN(C(=O)CC(C)C)CC[C@H]2CC[C@@H](C(=O)NCc3ccc(-c4ccccc4)cc3)N2C1=O [SM-434] |  |  |  |  | < 10000 nM | < 10000 nM | < 10 µM | 

— patent US8278293B2, “Diazo bicyclic Smac mimetics and the uses thereof” (The Regents of the University of Michigan, priority 2007, dated 2012)
